Key:
[1] = system: rabbit serum obtained by immunizing a rabbit with the SARS-CoV strain Frankfurt 1; format: binding; design: Binding of a rabbit serum to linear peptides / Binding of a rabbit serum to looped peptides / Rabbit serum linear peptides / Rabbit serum looped peptides / Binding of a rabbit serum to linear peptides of protein N of SARS-CoV Urbani (Rabbit serum linear peptides) / Binding of a rabbit serum to looped/cyclic peptides of protein N of SARS-CoV Urbani (Rabbit serum looped peptides): unit not given here
[2] = system: recombinant human anti-SARS-CoV antibody 03-018; format: binding; design: Binding of antibody 03-018 to linear peptides of the N protein of SARS-CoV Urbani / Binding of antibody 03-018 to looped/cyclic peptides of the N protein of SARS-CoV Urbani: unit not given here
[3] = system: antibodies in sera from SARS patients (sera 1a, 1b, 2, 6, 37, 62, London, SARS-yellow, SARS-green); format: binding, human; design: Binding of serum 6 to linear peptides of protein X1 of SARS-CoV Urbani / Binding of serum 37 to linear peptides of protein X1 of SARS-CoV Urbani / Binding of serum 6 to looped/cyclic peptide (PEPSCAN-ELISA) / Binding of serum 37 to looped/cyclic peptide (PEPSCAN-ELISA) / Binding of serum 37 to looped/cyclic peptides of protein X1 of SARS-CoV Urbani / Binding of serum 6 to linear peptides of protein X2 / Binding of serum 37 to linear peptides of protein X2 / Binding of serum 37 to looped/cyclic peptides of protein X2 of SARS-CoV Urbani / Binding of serum 6 to linear peptides of protein M of SARS-CoV Urbani / Binding of serum 37 to linear peptides of protein M of SARS-CoV Urbani / Binding of serum 6 to looped/cyclic peptides of protein M of SARS-CoV Urbani / Binding of serum 37 to looped/cyclic peptides of protein M of SARS-CoV Urbani / Binding of serum 6 to linear peptides of protein X3 of SARS-CoV Urbani / Binding of serum 37 to linear peptides of protein X3 of SARS-CoV Urbani / Binding of serum 37 to looped/cyclic peptides of protein X3 of SARS-CoV Urbani / Binding of serum 6 to linear peptides of protein X4 of SARS-CoV Urbani / Binding of serum 37 to linear peptides of protein X4 of SARS-CoV Urbani / Binding of serum 37 to looped/cyclic peptides of protein X4 of SARS-CoV Urbani / Binding of serum 6 to linear peptides of protein X5 of SARS-CoV Urbani / Binding of serum 37 to linear peptides of protein X5 of SARS-CoV Urbani / Binding of serum 37 to looped/cyclic peptides of protein X5 of SARS-CoV Urbani / Binding of serum 6 to linear peptides of protein N of SARS-CoV Urbani / Binding of serum 37 to linear peptides of protein N of SARS-CoV Urbani / Binding of serum 6 to linear peptide (PEPSCAN-ELISA) / Binding of serum 1a to looped/cyclic peptides of protein N of SARS-CoV Urbani / Binding of serum 1b to looped/cyclic peptides of protein N of SARS-CoV Urbani / Binding of serum 2 to looped/cyclic peptides of protein N of SARS-CoV Urbani / Binding of serum 6 to looped/cyclic peptides of protein N of SARS-CoV Urbani / Binding of serum 37 to looped/cyclic peptides of protein N of SARS-CoV Urbani / Binding of serum 62 to looped/cyclic peptides of protein N of SARS-CoV Urbani / Binding of serum London to looped/cyclic peptides of protein N of SARS-CoV Urbani / Binding of serum SARS-green to looped/cyclic peptides of protein N of SARS-CoV Urbani: unit not given here
[4] = system: control sera (pooled serum of ten healthy LUMC hospital workers; commercial negative donor pooled serum from the Dutch bloodbank); format: binding, human; design: Binding of Control serum LUMC to linear peptides / Binding of Control serum Blood-bank to linear peptides / Binding of Control serum LUMC to looped peptides / Binding of Control Serum Blood-Bank to Looped peptides / Binding of Control serum LUMC to linear peptides of the protein M of SARS-CoV Urbani / Binding of Control serum Blood-bank to linear peptides of the protein M of SARS-CoV Urbani / Binding of Control serum LUMC to looped peptides of the protein M of SARS-CoV Urbani / Binding of Control Serum Blood-Bank to Looped peptides of the protein M of SARS-CoV Urbani: unit not given here

Row | Sequence | Binding of a rabbit serum to linear peptides of protein N of SARS-CoV Urbani (Rabbit serum linear peptides) [1] | Binding of a rabbit serum to looped/cyclic peptides of protein N of SARS-CoV Urbani (Rabbit serum looped peptides) [1] | Binding of antibody 03-018 to linear peptides of the N protein of SARS-CoV Urbani [2] | Binding of antibody 03-018 to looped/cyclic peptides of the N protein of SARS-CoV Urbani [2] | Binding of serum 1a to linear peptides of protein N of SARS-CoV Urbani [3] | Binding of serum 1a to looped/cyclic peptides of protein N of SARS-CoV Urbani [3] | Binding of serum 1b to linear peptides of protein N of SARS-CoV Urbani [3] | Binding of serum 1b to looped/cyclic peptides of protein N of SARS-CoV Urbani [3] | Binding of serum 2 to linear peptides of protein N of SARS-CoV Urbani [3] | Binding of serum 2 to looped/cyclic peptides of protein N of SARS-CoV Urbani [3] | Binding of serum 6 to linear peptides of protein N of SARS-CoV Urbani [3] | Binding of serum 6 to looped/cyclic peptides of protein N of SARS-CoV Urbani [3] | Binding of serum 37 to linear peptides of protein N of SARS-CoV Urbani [3] | Binding of serum 37 to looped/cyclic peptides of protein N of SARS-CoV Urbani [3] | Binding of serum 62 to linear peptides of protein N of SARS-CoV Urbani [3] | Binding of serum 62 to looped/cyclic peptides of protein N of SARS-CoV Urbani [3] | Binding of serum London to linear peptides of protein N of SARS-CoV Urbani [3] | Binding of serum London to looped/cyclic peptides of protein N of SARS-CoV Urbani [3] | Binding of serum SARS-green to looped/cyclic peptides of protein N of SARS-CoV Urbani [3] | Binding of serum SARS-yellow to looped/cyclic peptides of protein N of SARS-CoV Urbani [3] | other results
1 | FGGPTDSTDNNQNGG | 0.0 | 0.1 | 0.1 | 0.2 | 0.3 | 0.2 | 0.1 | 0.1 | 0.1 | 0.2 | 0.1 | 0.1 | 0.6 | 0.4 | 0.5 | 0.2 | 0.5 | 0.2 | 0.3 | 0.1 | Binding of serum SARS-green to linear peptides of protein N of SARS-CoV Urbani [3]: 0.0; Binding of serum SARS-yellow to linear peptides of protein N of SARS-CoV Urbani [3]: 0.5; Binding of Control Serum Blood-Bank to Looped peptides [4]: 0.4; Binding of Control serum Blood-bank to linear peptides [4]: 0.6; Binding of Control serum LUMC to linear peptides [4]: 0.5; Binding of Control serum LUMC to looped peptides [4]: 0.4
2 | FGRRGPEQTQGNFGD | 0.2 | 0.0 | 0.1 | 0.1 | – | 0.3 | – | 0.1 | – | 0.2 | – | 0.1 | – | 0.4 | – | 0.1 | – | 0.2 | 0.2 | 0.2 | Recognition of the peptide by sera of SARS-CoV infected individuals, and form (linear, looped/cyclic) in which it is recognized [3]: recognized in linear form; Binding of Control Serum Blood-Bank to Looped peptides [4]: 0.4; Binding of Control serum Blood-bank to linear peptides [4]: 0.7; Binding of Control serum LUMC to linear peptides [4]: 0.6; Binding of Control serum LUMC to looped peptides [4]: 0.3
3 | FKDNVILLNKHIDAY | 0.1 | 0.5 | 0.1 | 0.2 | 0.2 | 0.5 | 0.1 | 0.3 | 0.2 | 0.5 | 0.2 | 0.3 | 0.6 | 0.8 | 0.6 | 0.8 | 0.5 | 0.5 | 0.2 | 0.5 | Binding of serum SARS-green to linear peptides of protein N of SARS-CoV Urbani [3]: 0.2; Binding of serum SARS-yellow to linear peptides of protein N of SARS-CoV Urbani [3]: 0.7; Control Serum Blood-Bank Looped peptides [4]: 0.8; Control serum Blood-bank linear peptides [4]: 0.6; Control serum LUMC linear peptides [4]: 0.5; Control serum LUMC looped peptides [4]: 0.8
4 | FPPTEPKKDKKKKTD | 0.1 | 0.1 | 0.1 | 0.2 | 0.2 | 0.2 | 0.1 | 0.1 | 1.3 | 0.2 | 0.2 | 0.1 | 0.6 | 0.4 | 0.7 | 0.2 | 0.6 | 0.2 | 0.0 | 0.1 | Binding of serum SARS-green to linear peptides of protein N of SARS-CoV Urbani [3]: 0.1; Binding of serum SARS-yellow to linear peptides of protein N of SARS-CoV Urbani [3]: 0.6; Control Serum Blood-Bank Looped peptides [4]: 0.4; Control serum Blood-bank linear peptides [4]: 0.6; Control serum LUMC linear peptides [4]: 0.6; Control serum LUMC looped peptides [4]: 0.3

From US20070128217A1 (priority 2003, published 2007)
